{"source": "patent US20240050414A1", "about": "“A COMPOSITION FOR USE IN THE TREATMENT OF INFERTILITY” (priority 2020, published 2024)", "key": {"sperm": {"test_system": "sperm", "experiment": "CASA sperm motility assessment", "format": "cell-based, human", "details": "for maintaining percentage of motile and progressive sperm and VAP: 24 and 48 hour", "method": "FIG. 1 illustrates the evaluation of the cytoprotective and antioxidant compound ergothionine for ability to preserve sperm motility and progression, wherein sperm were separated from seminal fluid by density gradient centrifugation, washed in sperm wash media, and incubated in multipurpose handling medium for 48 hours in the presence of antioxidant, wherein path velocity (A) and sperm motility (B) were quantified by CASA, wherein for statistical analysis the log ratio to control was used as the dependent variable in ONEWAY ANOVA with posthoc testing by Dunnet's test (comparisons against a single ‘control’ value only), wherein N>12 per group;\nFIG. 4 illustrates ergothionine effectively maintains sperm motility and progression, wherein sperm were separated from seminal fluid by density gradient centrifugation, washed in sperm wash media and incubated in multipurpose handling medium in the presence of ergothionine at 1 mM for 24 hours (A-C) or 48 hours (D-F) or in the presence of ergothionine at 0.1 mM for 24 hours (G-I) or 48 hours (J-L), wherein sperm motility was analysed using CASA, wherein statistical analysis was performed using the Wilcoxon signed-rank, wherein N=26 per group for ergothionine at 1 mM and N=10 per group for 0.1 mM ergothionine;\nFIG. 8 illustrates a head-to-head comparison of the effect of a commercially available composition and the composition on sperm motility, wherein sperm were separated from seminal fluid by density gradient centrifugation, washed in sperm wash media and incubated in multipurpose handling medium in the presence of the commercially available composition (A,B) and the composition (C,D) for a period of 30 minutes, wherein sperm motility was analysed using CASA, wherein statistical analysis was performed using the Wilcoxon signed-rank test, wherein N=6 per group; and\nSperm motility assessments were carried out by Computer Assisted Sperm Analysis (CASA) using the Hamilton Thorne software and a Zeiss microscope, following WHO and manufacturers' guidelines. Briefly, semen samples were resuspended using Pasteur pipettes and diluted 1 in 3 in sperm wash media (Irvine Scientific, 9983). […] Motility assessment was evaluated by capturing at least 1000 sperm cell tracks per slide for unprocessed samples and 300 for processed samples. Total cell count (×10e6/ml), percentage immotile (IM), non-progressively motile (NP) and progressively motile (PR) sperm and average path velocity (VAP) for M and PM sperm was recorded for each sample as defined by World Health Organisation (WHO) laboratory manual for the examination and processing of human semen (fifth edition, 2010). […]"}, "8-OH-G on sperm DNA": {"test_system": "8-OH-G on sperm DNA", "experiment": "Flow cytometric assay of oxidative DNA damage (8-OHG) on sperm DNA", "format": "cell-based, human", "method": "FIG. 3 illustrates evaluating the effect of ergothionine on sperm oxidative DNA damage, wherein sperm were separated from seminal fluid by density gradient centrifugation, washed in sperm wash media, and incubated in multipurpose handling medium for 48 hours in the presence of the cytoprotective and antioxidant compound ergothionine, wherein sperm were fixed in 4% PFA and stained with FITC labelled 8-OHG antibody (2 μg/ml) for 60 mins, washed and analysed by flow cytometry, wherein data were analyzed using FlowJo software and the mean fluorescent intensity (MFI) plotted, wherein statistical analysis was performed using the Wilcoxon signed-rank test, wherein N=6 per group;\nA total of 1×10e6 washed semen samples were fixed by re-suspending the washed sperm cell pellet in 500 μl of 4% paraformaldehyde (Chem Cruz, 281692), pH 7.2 and incubating for 20-30 minutes at RT. Fixed spermatozoa were centrifuged at 2,500×g for 1.5 minutes and washed twice in 500 μl 1% NGS-PBS buffer.\nMeasurement of oxidative DNA damage was determined using anti-DNA/RNA [15A3] […]\nROS and DNA damage are the most significant contributors to male infertility. […] In measuring this parameter, a flow cytometric assay was developed that could quantify the amount of 8-hydroxyguanine (8-OH-G) in the DNA of individual sperm by the use of a specific fluorescently-labelled monoclonal antibody (see FIG. 2)."}, "[1]": {"test_system": "mouse oocytes with mouse sperm", "experiment": "In vitro fertilisation and embryo development to blastocyst", "format": "cell-based", "details": "Example 6, control PBS", "method": "To evaluate this, in vitro fertilisation studies were performed in the presence of the composition at a concentration of 10% and subsequent embryo development examined to blastocyst stage (see FIG. 7)."}, "rats [2]": {"test_system": "rats", "details": "2 g/kg; cited from earlier work"}, "rats [3]": {"test_system": "rats", "details": "fed 0.9% of diet for 13 weeks; cited from earlier work"}, "embryo development": {"test_system": "embryo development", "details": "0.1 mM; cited from earlier work"}, "[4]": {"test_system": "bovine embryo development", "details": "cited from earlier work"}, "sheep oocytes": {"test_system": "sheep oocytes", "details": "cited from earlier work"}, "[5]": {"details": "cited from earlier work"}}}
{"compound": "C[N+](C)(C)[C@@H](Cc1c[nH]c(=S)[nH]1)C(=O)[O-]", "note": "[ergothionine]", "values": [{"measurement": "effects on sperm motility and average path velocity (VAP)", "setting": "sperm; 48 hours in multipurpose handling medium, FIG. 1", "result": "sperm protective properties"}, {"measurement": "maintaining percentage of motile and progressive sperm and VAP", "setting": "sperm; ergothionine 0.1 mM, p values 0.04 for all parameters", "result": "effective at maintaining the percentage of motile and progressive sperm in addition to the speed of the movement (VAP)"}, {"measurement": "maintaining percentage of motile and progressive sperm and VAP", "setting": "sperm; ergothionine 1 mM, p values 0.002 for all parameters", "result": "effective at maintaining the percentage of motile and progressive sperm in addition to the speed of the movement (VAP)"}, {"measurement": "toxicity / effect on sperm motility and progression", "setting": "sperm; ergothionine 1 mM, 48 hour", "result": "effective and non-toxic, with no negative effect on sperm motility and progression"}, {"measurement": "protection against 8-OH-G formation on sperm DNA", "setting": "8-OH-G on sperm DNA; ergothionine 0.1 mM, 48 hour, FIG. 3a", "result": "ability to protect against 8-OH-G formation on sperm DNA"}, {"measurement": "cytoprotective effect against 8-OH-G formation (dose dependence)", "setting": "8-OH-G on sperm DNA; ergothionine 1 mM vs 0.1 mM, 48 hours, FIG. 3b", "result": "even greater cytoprotective effect"}, {"measurement": "effectiveness of exposed sperm in fertilisation versus PBS", "setting": "[1]", "result": "more effective that those exposed to PBS"}, {"measurement": "adverse effects in rats", "setting": "rats [2]", "result": "no adverse effects observed"}, {"measurement": "impact on fertility in rats", "setting": "rats [3]", "result": "no negative impact on fertility"}, {"measurement": "safety for embryo development", "setting": "embryo development", "result": "safe for embryo development"}, {"measurement": "concentrations beneficial for bovine embryo development", "setting": "[4]", "result": "up to 0.1 mM"}, {"measurement": "concentrations that negatively affect bovine embryo development", "setting": "[4]", "result": "> 500", "unit": "µM"}, {"measurement": "concentrations beneficial for in vitro maturation of sheep oocytes", "setting": "sheep oocytes", "result": "up to 10 mM"}, {"measurement": "water solubility", "setting": "[5]", "result": "water soluble"}]}
